According to patent publication US20250120399A1, “METHODS AND COMPOSITIONS FOR ALTERING METABOLITES IN VITIS SPP. AND PREVENTING PESTS AND PATHOGENS” (Impello Biosciences, Inc., priority 2022, published 2025):

What was measured:
Assay type in all cases: in vivo
Botrytis cinerea [1] = assay: Laccase analysis for prevalence of Botrytis, 2021 field trial (Example 3); conditions: cabernet sauvignon; approx. 5 mM MDJ at 50 gal/acre, four applications
Protocol: MDJ was applied to fields of grape to investigate the efficacy of MDJ in preventing bunch rot on (Botrytis cinerea) and powdery mildew (Erysiphe necator) on grapes. […] (1 liter) per 50 gallons of water (approximately a 5 mM solution of MDJ). The composition was then applied (at a rate of 50 gallons per acre) to three acres (1245 vines/acre) of a cabernet sauvignon variety grown in Napa Valley, CA. There was a total of four applications between June and September using a ground spray rig. To investigate the prevalence of Botrytis, the enzyme laccase was analyzed. Laccase can negatively impact wine by causing premature browning of bottled white wine and color degradation in red wine. The MDJ treated group had 2 units/ml, whereas the control (grower standard) had 5 units/ml. This level in the control group means that Botrytis problems can be expected during the wine making process, whereas in the MDJ treated group, the value of 2 units/ml means there will be no issues with Botrytis during the wine making process.

Botrytis cinerea [2] = assay: Botrytis bunch rot percent disease incidence and severity, 2022 field trial (Example 4)
Protocol: Similar to Example 3 above, additional field trials were conducted in 2022 to investigate the efficacy of MDJ in preventing bunch rot (Botrytis cinerea). The objective of this trial was to evaluate the fungicidal efficacy of MDJ at 32 oz and 48 oz/A against Botrytis cinerea on wine grapes. Serenade® Opti at 16 oz/A was included for comparative purposes. Pro 90 a NIS with anti-foaming agent was included with each treatment at 2 oz/100 gal. The trial was conducted on 21-year-old Carignane grapes (Vitis vinifera).
The first of three foliar applications was initiated June 22nd (prior to veraison) followed a month later (July 21st when fruit was at early (5 to 10%) veraison, then at 40% veraison on August 1st. Applications were made using a backpack mistblower based on a spray volume of 80 gallons per acre. As a separate control of Erysiphe necator (powdery mildew), a maintenance fungicide program of two applications in June of fenarimol (4 oz/A) followed by two applications of fenarimol+Quintec (6 oz/A) at 2 week intervals was applied.
Temperatures throughout the trial ranged from highs of 89 to 104 degrees and lows of 50 to 66 degrees F. All treatments provided good crop safety with no phytotoxicity observed. Assessments were based on visual observation of the percent disease incidence and severity at each evaluation.

Aspergillus carbonarius = assay: Sour rot incidence and severity on black seedless grapes, 2022 field trial (Example 5); conditions: for Sour rot clusters of High severity (PESSEV) / Sour rot clusters of Low severity (PESSEV) / Sour rot clusters of Medium severity (PESSEV): ABCDE; for Sour rot clusters of High severity (PESSEV): Aug. 10, 2022, high = >51%; for Sour rot clusters of Low severity (PESSEV): Aug. 10, 2022, low = <40% of cluster area; for Sour rot clusters of Medium severity (PESSEV): Aug. 10, 2022, medium = 41%-50%; for Sour rot infected clusters (PESINC): applications ABCDE, rated Aug. 10, 2022
Protocol: Field trials were conducted in California 2022 (a dry year) to investigate the efficacy of MDJ in preventing Sour Rot caused by Aspergillus carbonarius (also known as summer bunch rot, abbreviated ASPECA in Table 7). Black seedless grapes (Vitis labrusca) were used in this trial. Four vines were used per plot. The plots were arranged in a randomized complete block design with six replicates (plots) per treatment. The plots were sprayed five times (ABCDE) at a rate of 500 gal/AC.
Treatments consisted of MDJ at 32 oz and 48 oz/A. A treatment of Regalia® at 1.5 qt/100 gal and Stargus® at 2 qt/100 gal was included for comparative purposes. Application D occurred at 5-10% veraison. Application E occurred at 40% veraison.
Botrytis and powdery mildew were absent for the trial. An evaluation of sour rot was completed before the harvest. The area of an infected cluster was estimated into a percentage and categorized into three levels of severity: low (<40%), medium (41%-50%), and high (>51%). The majority of individual infected clusters had low severity.

[3] = system: Kyoho grapes (Vitis vinifera×Vitis labrusca); assay: Cluster weight, grape weight, diameter, grapes per cluster, pH and Brix in Kyoho grapes (Example 6); conditions: for Average Brix (FRUIT, BRIX) / Average diameter (FRUIT, DIAMET) / Average fruit per cluster (CLUSTR, COUNT) / Individual grape weight (FRUIT, WEIGHT) / pH (FRUIT, PH) / Average Weight of cluster: applications ABCD; for Average Brix (FRUIT, BRIX) / Average diameter (FRUIT, DIAMET) / Average fruit per cluster (CLUSTR, COUNT) / Individual grape weight (FRUIT, WEIGHT): rated Aug. 17, 2022; for pH (FRUIT, PH): rated Aug. 17, 2022, scale 0-14
Protocol: Field trials were conducted in California 2022 (a dry year) to investigate the efficacy of MDJ in preventing Sour Rot caused by Aspergillus carbonarius (also known as summer bunch rot, abbreviated ASPECA in Table 10). Kyoho grapes (Vitis vinifera×Vitis labrusca) were used in this trial. Three vines were used per plot. The plots were arranged in a randomized complete block design with six replicates (plots) per treatment (24 plots total). The plots were sprayed four times (ABCD) at a rate of 500 gal/AC.
Treatments consisted of MDJ at 32 oz and 48 oz/A. A treatment of Regalia® at 1.5 qt/100 gal and Stargus® at 2 qt/100 gal was included for comparative purposes.

Structure (SMILES): CCCCCC1C(=O)CCC1CC(=O)OC (stereo not shown) [MDJ, methyl dihydrojasmonate]
- Laccase (Botrytis cinerea [1]): 2 units/ml
- Control of Botrytis incidence and severity, higher vs lower rate (Botrytis cinerea [2]; Carignane wine grapes, higher rate of MDJ (48 oz/A)): numerically better control of Botrytis incidence and severity
- B. cinerea suppression (disease incidence) vs untreated grapes (Botrytis cinerea [2]; MDJ Elicitor at both rates (32 and 48 oz/A), 26DAC, 20 bunches per plot): significantly better B. cinerea suppression
- Control of Botrytis, higher vs lower rate (Botrytis cinerea [2]; higher rate of MDJ (48 oz/A), 7 and 14 days after the third treatment (7 and 14DAC)): significantly better control
- Control of Botrytis incidence compared to the Serenade Opti standard (Botrytis cinerea [2]; low rate of MDJ (32 oz/A), 26DAC): significantly better control of Botrytis incidence
- Sour rot clusters of High severity (PESSEV) (Aspergillus carbonarius; 32 oz/a): 1.3— NUMBER
- Sour rot clusters of Low severity (PESSEV) (Aspergillus carbonarius; 32 oz/a): 7.2— NUMBER
- Sour rot clusters of Medium severity (PESSEV) (Aspergillus carbonarius; 32 oz/a): 5.3— NUMBER
- Sour rot infected clusters (PESINC) (Aspergillus carbonarius; 32 oz/a): 13.8— NUMBER
- Sour rot clusters of High severity (PESSEV) (Aspergillus carbonarius; 48 oz/a): 0.8— NUMBER
- Sour rot clusters of Low severity (PESSEV) (Aspergillus carbonarius; 48 oz/a): 6.2— NUMBER
- Sour rot clusters of Medium severity (PESSEV) (Aspergillus carbonarius; 48 oz/a): 5.3— NUMBER
- Sour rot infected clusters (PESINC) (Aspergillus carbonarius; 48 oz/a): 12.3— NUMBER
- Control of sour rot compared to the rest of the treatments (Aspergillus carbonarius; higher rate of MDJ Elicitor (48 oz/A)): most effective at controlling sour rot
- Average Brix (FRUIT, BRIX) ([3]; 32 oz/a): 20.73%
- Average diameter (FRUIT, DIAMET) ([3]; 32 oz/a): 23.778 mm
- Average fruit per cluster (CLUSTR, COUNT) ([3]; 32 oz/a): 32.5 number
- Individual grape weight (FRUIT, WEIGHT) ([3]; 32 oz/a): 7.277 g
- pH (FRUIT, PH) ([3]; 32 oz/a): 4.0
- Average Brix (FRUIT, BRIX) ([3]; 48 oz/a): 20.17%
- Average diameter (FRUIT, DIAMET) ([3]; 48 oz/a): 23.917 mm
- Average fruit per cluster (CLUSTR, COUNT) ([3]; 48 oz/a): 34.3 number
- Individual grape weight (FRUIT, WEIGHT) ([3]; 48 oz/a): 7.232 g
- pH (FRUIT, PH) ([3]; 48 oz/a): 4.0
- Average Weight of cluster ([3]; Aug. 17, 2022, 32 oz/a): 234.287a g
- Average Weight of cluster ([3]; Aug. 17, 2022, 48 oz/a): 246.350a g
- Diameter of individual grapes ([3]; MDJ treatment): did not significantly affect
- Weight of individual grapes ([3]; MDJ treatment): did not significantly affect
- pH of individual grapes ([3]; MDJ treatment): did not significantly affect
- Grapes per cluster vs standard control (Regalia and Stargus) ([3]; both rates of MDJ (32 and 48 oz/A)): significantly more grapes per cluster
- Brix level compared to other treatments ([3]; higher rate of MDJ (48 oz/A)): statistically reduced the Brix level
